The assay has as its target USP7 (Homo sapiens, UniProt Q93009). Put plainly: USP7 inhibitory potency (IC50). Type of assay: biochemical. As for the experimental part: Activity for compounds described herein is provided in Table 2, wherein potency levels are provided as follows: (Potency: USP7 IC50: A<0.01 μM; B=0.01-0.1 μM; C=>0.1 μM.

Where only a bound is given, the exact number is not on record here.

USP7, sequence (Q93009 whole entry): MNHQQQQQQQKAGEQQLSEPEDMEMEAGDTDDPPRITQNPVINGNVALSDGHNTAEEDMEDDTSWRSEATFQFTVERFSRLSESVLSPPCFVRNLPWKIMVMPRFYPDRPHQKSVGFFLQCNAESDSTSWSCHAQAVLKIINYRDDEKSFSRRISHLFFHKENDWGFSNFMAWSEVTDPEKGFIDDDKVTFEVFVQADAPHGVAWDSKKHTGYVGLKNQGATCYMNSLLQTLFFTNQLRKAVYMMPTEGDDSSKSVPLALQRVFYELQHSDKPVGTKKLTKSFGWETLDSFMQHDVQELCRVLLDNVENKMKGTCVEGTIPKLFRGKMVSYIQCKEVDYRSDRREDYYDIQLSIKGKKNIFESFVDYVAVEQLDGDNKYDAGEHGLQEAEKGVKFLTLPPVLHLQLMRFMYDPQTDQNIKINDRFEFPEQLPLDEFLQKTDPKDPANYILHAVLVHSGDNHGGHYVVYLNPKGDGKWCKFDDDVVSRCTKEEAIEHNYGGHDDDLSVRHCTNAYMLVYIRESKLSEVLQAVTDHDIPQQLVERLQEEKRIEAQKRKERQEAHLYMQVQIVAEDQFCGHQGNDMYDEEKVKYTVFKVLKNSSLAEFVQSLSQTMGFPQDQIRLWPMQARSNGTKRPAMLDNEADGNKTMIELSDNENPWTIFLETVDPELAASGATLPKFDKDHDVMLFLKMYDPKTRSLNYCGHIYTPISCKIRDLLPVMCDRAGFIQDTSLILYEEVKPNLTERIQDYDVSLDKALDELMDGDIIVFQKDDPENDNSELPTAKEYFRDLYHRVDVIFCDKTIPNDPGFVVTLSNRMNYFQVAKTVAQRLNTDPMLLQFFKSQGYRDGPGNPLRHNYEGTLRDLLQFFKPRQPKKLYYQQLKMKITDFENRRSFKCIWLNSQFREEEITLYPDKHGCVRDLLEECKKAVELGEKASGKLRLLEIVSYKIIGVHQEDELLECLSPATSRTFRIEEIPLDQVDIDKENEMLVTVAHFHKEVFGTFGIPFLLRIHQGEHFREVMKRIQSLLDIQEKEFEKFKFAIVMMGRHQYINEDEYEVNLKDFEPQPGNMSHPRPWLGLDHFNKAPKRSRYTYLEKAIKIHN

A word on the IC50: it is the concentration needed to halve the response being measured. Regarding `CC1(C)CNCC(Cc2c(Cl)cc(Cl)cc2-c2ncnc3cc(Cn4cnccc4=O)sc23)O1` (centres unmarked) [Example 251, 3-((4-(3,5-dichloro-2-((6,6-dimethylmorpholin-2-yl)methyl)phenyl)thieno[3,2-d]pyrimidin-6-yl)methyl)pyrimidin-4(3H)-one], the IC50 is > 100 nM.

Take `CN1CCC(=O)N(Cc2cc3nccc(-c4cc(Cl)cc(Cl)c4CC4CNCCO4)c3s2)C1=O` (centres unmarked) [Example 130, 3-((7-(3,5-dichloro-2-(morpholin-2-ylmethyl)phenyl)thieno[3,2-b]pyridin-2-yl)methyl)-1-methyldihydropyrimidine-2,4(1H,3H)-dione]: the 50% inhibitory concentration (IC50) is < 10 nM.

`Cc1cc(Cl)cc(-c2ccnc3cc(CN4C(=O)CCC4=O)sc23)c1CN1[C@H](C)CNC[C@H]1C` [Example 27, 1-((7-(5-chloro-2-(((2R,6R)-2,6-dimethylpiperazin-1-yl)methyl)-3-methylphenyl)thieno[3,2-b]pyridin-2-yl)methyl)pyrrolidine-2,5-dione] showed an IC50 of 10 to 100 nM.

`Cc1cc(Cl)cc(-c2ncnc3cc(CN4C(=O)CCN(CC(F)(F)F)C4=O)sc23)c1C[C@@H]1CNCC(C)(C)O1` [Example 236, (R)-3-((4-(5-chloro-2-((6,6-dimethylmorpholin-2-yl)methyl)-3-methylphenyl)thieno[3,2-d]pyrimidin-6-yl)methyl)-1-(2,2,2-trifluoroethyl)dihydropyrimidine-2,4(1H,3H)-dione]: the IC50 is < 10 nM.

On to `Cc1cc(Cl)cc(-c2ncnc3cc(CN4C(=O)C5CC5C4=O)sc23)c1CC1CNCC(C)(C)O1` (centres unmarked) [Example 154, 3-((4-(5-chloro-2-((6,6-dimethylmorpholin-2-yl)methyl)-3-methylphenyl)thieno[3,2-d]pyrimidin-6-yl)methyl)-3-azabicyclo[3.1.0]hexane-2,4-dione], for which the IC50 is < 10 nM.

`Cc1cc(Cl)cc(-c2ncnc3cc(CN4C(=O)C5CCC5C4=O)sc23)c1CC1CNCC(C)(C)O1` (centres unmarked) [Example 180, 3-((4-(5-chloro-2-((6,6-dimethylmorpholin-2-yl)methyl)-3-methylphenyl)thieno[3,2-d]pyrimidin-6-yl)methyl)-3-azabicyclo[3.2.0]heptane-2,4-dione]: the IC50 is < 10 nM.

As to `Cc1cc(Cl)cc(-c2ncnc3cc(CN4C(=O)CCN(CC(F)F)C4=O)sc23)c1CN1[C@@H](C)CNC[C@@H]1C` [Example 259, 3-((4-(5-chloro-2-(((2S,6S)-2,6-dimethylpiperazin-1-yl)methyl)-3-methylphenyl)thieno[3,2-d]pyrimidin-6-yl)methyl)-1-(2,2-difluoroethyl)dihydropyrimidine-2,4(1H,3H)-dione], the IC50 was < 10 nM.

Regarding `Cc1cc(Cl)cc(-c2ncnc3cc(Cn4c(=O)ccn(C)c4=O)sc23)c1CC1CNCC2(CCC2)O1` (centres unmarked) [Example 223, 3-((4-(2-((5-oxa-8-azaspiro[3.5]nonan-6-yl)methyl)-5-chloro-3-methylphenyl)thieno[3,2-d]pyrimidin-6-yl)methyl)-1-methylpyrimidine-2,4(1H,3H)-dione], the IC50 was < 10 nM.

Regarding `Cc1cc(Cl)cc(-c2ncnc3cc(CN4C(=O)CCC4=O)sc23)c1C[C@@H]1CNCCO1` [Example 197, (R)-1-((4-(5-chloro-3-methyl-2-(morpholin-2-ylmethyl)phenyl)thieno[3,2-d]pyrimidin-6-yl)methyl)pyrrolidine-2,5-dione], the IC50 is < 10 nM.

Consider `Cc1cc(Cl)cc(-c2ccnc3cc(Cn4c(=O)ccn(CC(F)(F)F)c4=O)sc23)c1CN1CCNC(=O)C1` [Example 1, 3-((7-(5-chloro-3-methyl-2-((3-oxopiperazin-1-yl)methyl)phenyl)thieno[3,2-b]pyridin-2-yl)methyl)-1-(2,2,2-trifluoroethyl)pyrimidine-2,4(1H,3H)-dione], for which the IC50 is > 100 nM.

In the case of `C[C@H]1CNC[C@H](C)N1Cc1c(Cl)cc(Cl)cc1-c1ccnc2cc(CN3C(=O)CCC3=O)sc12` [Example 48, 1-((7-(3,5-dichloro-2-(((2S,6S)-2,6-dimethylpiperazin-1-yl)methyl)phenyl)thieno[3,2-b]pyridin-2-yl)methyl)pyrrolidine-2,5-dione], the IC50 was < 10 nM.

Source of the values: US11084829B2, “Ubiquitin-specific-processing protease 7 (USP7) modulators and uses thereof” (RAPT THERAPEUTICS, INC., priority 2018, dated 2021).
